pEC50: −log10 of the molar value. Where two headings read alike, the source gives them in different places. Bounds are passed on as bounds.

One data set deals with HIV-1IIIB. Put plainly: Syncytia inhibition assay (HIV-1IIIB infected C8166 cells). Type of data set: cell-based. The note with it: for TI (in vitro therapeutic index, CC50 value/EC50 value): CC50 in C8166 cells / EC50 syncytia inhibition; for pEC50: HIV-1IIIB infected C8166 cells, 72 h, means of two separate experiments, read-out: EC50 (50% effective concentration, reduces syncytia formation by 50%). On the procedure: Target compounds 6–16 were evaluated for their inhibitory activity against HIV-1 replication in acutely infected C8166 cells in vitro according to the previously described method, and AZT was used as a positive control. The assay results of the target compounds are presented in Table 1 and Table 2, expressed as CC50, EC50 and therapeutic index (TI).
The syncytia inhibition assay was applied by counting syncytia which were formed by HIV-1IIIB infected C8166 cells. Briefly, HIV-1IIIB supernatant and C8166 cells were seeded in a 96-well plate with different concentration of compounds. The plate was incubated in a 37 °C, 5% CO2 incubator for 72 h. Syncytia were counting under an inverted microscope and 50% effective concentration (EC50) was calculated. Therapeutic index (TI) was calculated by the ratio of CC50/EC50.

A further data set in a line: Cytotoxicity assay (MTT). Type of data set: cell-based. The note with it: human; C8166 cells, MTT, 72 h; means of two separate experiments; read-out: CC50 (50% cytotoxic concentration). The method, then: The cytotoxicty assay was performed by 3-(4,5-dimethylthiazol-2-yl)-2,5-diphenyl tetrazoliumbromide (MTT) method. Briefly, 100 μL 4 × 10^4 C8166 cells were seeded each well with 100 μL of different concentrations of compounds in a 96-well plate. The plate was incubated 72 h at 37 °C, 5% CO2 incubator. MTT (20 μL, 5 mg/mL) was added to each well and the plate was incubated at 37 °C for 4 h. Supernatant (100 μL) was discarded and 20% SDS-50% DMF (100 μL) was added. The plates were read at 570/630 nm by a Bio-Tek Elx 800 reader (Bio-Tek Instruments, Inc., Winooski, VT, USA). The 50% cytotoxic concentration (CC50) was calculated.

Setting [1] is: Human immunodeficiency virus 1, C8166, 72 h.

Turning to `COc1cccc(C2=NN(c3cccc(F)c3)C3C(=O)N(CCc4ccc(F)cc4)C(=O)C23)c1O` (stereo not shown) [15a, 1-(3-Fluorophenyl)-5-[2-(4-fluorophenyl)ethyl]-3-(2-hydroxy-3-methoxyphenyl)-3a,6a-dihydro-1H-pyrrolo[3,4-c]pyrazole-4,6-dione], in the data set on HIV-1IIIB, the “TI (in vitro therapeutic index, CC50 value/EC50 value)” value worked out at 10.67. Also, the pEC50 in the data set on HIV-1IIIB (setting [1]) was 4.92. In addition, in the data set “Cytotoxicity assay (MTT)”, the CC50 at 72 h is 129 µM.
For `COc1cccc(C2=NN(c3ccccc3F)C3C(=O)N(CCc4ccc(F)cc4)C(=O)C23)c1O` (stereo not shown) [15b, 1-(2-Fluorophenyl)-5-[2-(4-fluorophenyl)ethyl]-3-(2-hydroxy-3-methoxyphenyl)-3a,6a-dihydro-1H-pyrrolo[3,4-c]pyrazole-4,6-dione], the “TI (in vitro therapeutic index, CC50 value/EC50 value)” value in the data set with HIV-1IIIB was more than 3.71. Further, the pEC50 in the data set on HIV-1IIIB (setting [1]) was 3.95. Besides, in “Cytotoxicity assay (MTT)”, the CC50 at 72 h is more than 419 µM.
As for `COc1cccc(C2=NN(c3ccc(C)cc3)C3C(=O)N(CCc4ccc(F)cc4)C(=O)C23)c1O` (stereo not shown) [15i, 5-[2-(4-Fluorophenyl)ethyl]-3-(2-hydroxy-3-methoxyphenyl)-1-(4-methylphenyl)-3a,6a-dihydro-1H-pyrrolo[3,4-c]pyrazole-4,6-dione], in the data set on HIV-1IIIB, the “TI (in vitro therapeutic index, CC50 value/EC50 value)” value is more than 103.09 and the pEC50 was 5.39. The pEC50 in the data set on HIV-1IIIB (setting [1]) was more than 5.30. Besides, in “Cytotoxicity assay (MTT)”, the CC50 at 72 h was more than 423 µM.
As for `COc1ccc(N2N=C(c3cccc(OC)c3O)C3C(=O)N(CCc4ccc(F)cc4)C(=O)C32)cc1` (stereo not shown) [15j, 5-[2-(4-Fluorophenyl)-ethyl]-3-(2-hydroxy-3-methoxyphenyl)-1-(4-methoxyphenyl)-3a,6a-dihydro-1H-pyrrolo[3,4-c]pyrazole-4,6-dione], in the data set on HIV-1IIIB, the “TI (in vitro therapeutic index, CC50 value/EC50 value)” value was more than 19.34. The pEC50 in the data set with HIV-1IIIB (setting [1]) is 4.68. Also, the CC50 at 72 h in the data set “Cytotoxicity assay (MTT)” was more than 409 µM.
The like results for `COc1ccc(CCN2C(=O)C3C(c4cccc(OC)c4O)=NN(c4ccc(F)cc4)C3C2=O)cc1` (stereo not shown) [16e, 1-(4-Fluorophenyl)-3-(2-hydroxy-3-methoxyphenyl)-5-[2-(4-methoxyphenyl)ethyl]-3a,6a-dihydro-1H-pyrrolo[3,4-c]pyrazole-4,6-dione] were, in that order, 2.52, 4.06 and 219 µM.
As for `O=C1C2C(c3nccs3)=NN(c3ccc(F)cc3)C2C(=O)N1CCc1ccc(F)cc1` (stereo not shown) [14a, 1-(4-Fluorophenyl)-5-[2-(4-fluorophenyl)ethyl]-3-thiazol-2-yl-3a,6a-dihydro-1H-pyrrolo[3,4-c]pyrazole-4,6-dione], the “TI (in vitro therapeutic index, CC50 value/EC50 value)” value in the data set with HIV-1IIIB is recorded as 4.46. Also, the pEC50 with HIV-1IIIB (setting [1]) is 4.45. Moreover, in “Cytotoxicity assay (MTT)”, the CC50 at 72 h amounted to 158 µM.
The like results for `O=C1C2C(c3cc(F)ccc3O)=NN(c3ccc(F)cc3)C2C(=O)N1CCc1ccc(F)cc1` (stereo not shown) [9c, 1-(4-Fluorophenyl)-5-[2-(4-fluorophenyl)ethyl]-3-(5-fluoro-2-hydroxyphenyl)-3a,6a-dihydro-1H-pyrrolo[3,4-c]pyrazole-4,6-dione] were, in that order, 37.70, 5.38 and 159 µM.
On to `Cc1cccc(C2=NN(c3ccc(F)cc3)C3C(=O)N(CCc4ccc(F)cc4)C(=O)C23)c1O` (stereo not shown) [9f, 1-(4-Fluoro-phenyl)-5-[2-(4-fluoro-phenyl)-ethyl]-3-(2-hydroxy-3-methyl-phenyl)-3a,6a-dihydro-1H-pyrrolo[3,4-c]pyrazole-4,6-dione], for which, in the data set with HIV-1IIIB, the “TI (in vitro therapeutic index, CC50 value/EC50 value)” value is 30.73. In addition, the pEC50 in the data set with HIV-1IIIB (setting [1]) is 5.31. The CC50 at 72 h in the data set “Cytotoxicity assay (MTT)” was determined as 151 µM.
For the compound `O=C1C2C(c3c(O)ccc4ccccc34)=NN(c3ccc(F)cc3)C2C(=O)N1CCc1ccc(F)cc1` (stereo not shown) [compound 13, 1-(4-Fluorophenyl)-5-[2-(4-fluorophenyl)ethyl]-3-(2-hydroxynaphthalen-1-yl)-3a,6a-dihydro-1H-pyrrolo[3,4-c]pyrazole-4,6-dione], the “TI (in vitro therapeutic index, CC50 value/EC50 value)” value with HIV-1IIIB was found to be 2.00. The pEC50 in the data set on HIV-1IIIB (setting [1]) was 5.35. For the same compound, the CC50 at 72 h in the data set “Cytotoxicity assay (MTT)” was 9.03 µM.
Take `COc1cccc(C2=NN(c3ccc(F)cc3F)C3C(=O)N(CCc4ccc(F)cc4)C(=O)C23)c1O` (stereo not shown) [15d, 1-(2,4-Difluorophenyl)-5-[2-(4-fluorophenyl)ethyl]-3-(2-hydroxy-3-methoxyphenyl)-3a,6a-dihydro-1H-pyrrolo[3,4-c]pyrazole-4,6-dione]: the “TI (in vitro therapeutic index, CC50 value/EC50 value)” value in the data set on HIV-1IIIB was more than 6.12. Further, the pEC50 with HIV-1IIIB (setting [1]) is 4.18. In “Cytotoxicity assay (MTT)”, the CC50 at 72 h is more than 404 µM.
In the same order, the values of `COc1cccc(C2=NN(c3ccc(F)cc3)C3C(=O)N(CCc4ccccc4)C(=O)C23)c1O` (stereo not shown) [16d, 1-(4-Fluorophenyl)-3-(2-hydroxy-3-methoxyphenyl)-5-phenethyl-3a,6a-dihydro-1H-pyrrolo[3,4-c]pyrazole-4,6-dione] are more than 23.09, 4.72 and more than 436 µM.
The like results for `COc1cccc(C2=NN(c3ccc(S(N)(=O)=O)cc3)C3C(=O)N(CCc4ccc(F)cc4)C(=O)C23)c1O` (stereo not shown) [15g, 4-[5-[2-(4-Fluorophenyl)ethyl]-3-(2-hydroxy-3-methoxyphenyl)-4,6-dioxo-4,5,6,6a-tetrahydro-3aH-pyrrolo[3,4-c]pyrazol-1-yl]-benzenesulfonamide] were, in that order, 1.51, 4.52 and 46 µM.
With `O=C1C2C(c3cccc(O)c3O)=NN(c3ccc(F)cc3)C2C(=O)N1CCc1ccc(F)cc1` (stereo not shown) [compound 6, 3-(2,3-Dihydroxyphenyl)-1-(4-fluorophenyl)-5-[2-(4-fluorophenyl)ethyl]-3a,6a-dihydro-1H-pyrrolo[3,4-c]pyrazole-4,6-dione], the “TI (in vitro therapeutic index, CC50 value/EC50 value)” value with HIV-1IIIB is recorded as more than 16.37. Moreover, in the data set with HIV-1IIIB (setting [1]), the pEC50 is 4.58. The CC50 at 72 h in “Cytotoxicity assay (MTT)” was more than 432 µM.
As for `COc1cccc(C2=NN(c3ccc(S(C)(=O)=O)cc3)C3C(=O)N(CCc4ccc(F)cc4)C(=O)C23)c1O` (stereo not shown) [15f, 5-[2-(4-Fluorophenyl)ethyl]-3-(2-hydroxy-3-methoxyphenyl)-1-(4-methanesulfonylphenyl)-3a,6a-dihydro-1H-pyrrolo[3,4-c]pyrazole-4,6-dione], the “TI (in vitro therapeutic index, CC50 value/EC50 value)” value in the data set with HIV-1IIIB is more than 5.70. Further, the pEC50 in the data set on HIV-1IIIB (setting [1]) was 4.18. Also, the CC50 at 72 h in the data set “Cytotoxicity assay (MTT)” is more than 372 µM.
In the same order, the values of `CCOc1cccc(C2=NN(c3ccc(F)cc3)C3C(=O)N(CCc4ccc(F)cc4)C(=O)C23)c1O` (stereo not shown) [10c, 1-(4-Fluorophenyl)-5-[2-(4-fluorophenyl)ethyl]-3-(3-ethoxy-2-hydroxyphenyl)-3a,6a-dihydro-1H-pyrrolo[3,4-c]pyrazole-4,6-dione] are more than 3.51, 3.94 and more than 407 µM.
In the same order, the values of `COc1cccc(C2=NN(c3ccc(C(F)(F)F)cc3)C3C(=O)N(CCc4ccc(F)cc4)C(=O)C23)c1O` (stereo not shown) [15e, 5-[2-(4-Fluorophenyl)-ethyl]-3-(2-hydroxy-3-methoxyphenyl)-1-(4-trifluoromethylphenyl)-3a,6a-dihydro-1H-pyrrolo[3,4-c]pyrazole-4,6-dione] are more than 11.81, 4.49 and more than 379 µM.

The values above are taken from article PMC6274355, “Synthesis and Anti-HIV-1 Activity Evaluation for Novel 3a,6a-Dihydro-1H-pyrrolo[3,4-c]pyrazole-4,6-dione Derivatives” (Molecules, 2016).
